Consider two molecules from article PMC5623949, “Exploiting the 2-Amino-1,3,4-thiadiazole Scaffold To Inhibit Trypanosoma brucei Pteridine Reductase in Support of Early-Stage Drug Discovery” (ACS Omega, 2017).

The target in series [1] is T1, TbPTR1 (Trypanosoma brucei brucei, UniProt O76290).
T1 construct: made in house
T1 sequence (O76290 1-268): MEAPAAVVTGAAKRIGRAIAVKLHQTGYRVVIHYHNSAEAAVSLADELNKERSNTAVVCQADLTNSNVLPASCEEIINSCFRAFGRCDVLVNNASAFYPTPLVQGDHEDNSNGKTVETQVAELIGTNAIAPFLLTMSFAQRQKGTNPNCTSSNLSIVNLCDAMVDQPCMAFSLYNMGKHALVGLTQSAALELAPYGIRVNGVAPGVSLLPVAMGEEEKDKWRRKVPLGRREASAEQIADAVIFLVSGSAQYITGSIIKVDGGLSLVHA
Put plainly: biochemical.

Series [2] concerns T. b. brucei Lister 427 bloodstream forms. In words: In vitro activity against T. brucei (HTS SYBR Green I growth inhibition assay). It counts as cell-based, Trypanosoma brucei brucei. The conditions noted are these: Trypanosoma brucei, 50 μM; standard deviation within ±10% of the value; read-out: % Inhibition T. brucei at 50 μM.
Series [3] has as its target T1, TbPTR1. Put plainly: TbPTR1 direct enzyme inhibition assay for compounds I-X (Table S1). The series is classed as biochemical. As for the experimental part:
(b) PTR1 Enzyme inhibition. Compounds ICX were tested following the direct assay. The samples were incubated for
10 minutes at 30 °C, in buffer containing 50 mM Na citrate pH 3.7, TbPTR1, BH2 20 μM. (Dawson et al. Mol.
Microbiol. 2006, 61 (6), 1457–1468). Reaction start with NADPH. Compound concentrations depend on solubility and
ranged between 10C300 μM. Ki was calculated assuming a competitive inhibition mechanism.

Series [4] deals with mammalian cells. In words: Toxicity against mammalian cells (Table S1). The series is classed as cell-based. The conditions noted are these: read-out: IC50 vs mam.cells.
Series [5] has as its target T2, hERG (Homo sapiens, UniProt Q12809).
T2 construct: gene KCNH2
Also on record: hERG inhibition liability assay.

Series [6] has as its target T3, CYP1A2 (Homo sapiens, UniProt P05177).
T3 sequence (P05177 1-516): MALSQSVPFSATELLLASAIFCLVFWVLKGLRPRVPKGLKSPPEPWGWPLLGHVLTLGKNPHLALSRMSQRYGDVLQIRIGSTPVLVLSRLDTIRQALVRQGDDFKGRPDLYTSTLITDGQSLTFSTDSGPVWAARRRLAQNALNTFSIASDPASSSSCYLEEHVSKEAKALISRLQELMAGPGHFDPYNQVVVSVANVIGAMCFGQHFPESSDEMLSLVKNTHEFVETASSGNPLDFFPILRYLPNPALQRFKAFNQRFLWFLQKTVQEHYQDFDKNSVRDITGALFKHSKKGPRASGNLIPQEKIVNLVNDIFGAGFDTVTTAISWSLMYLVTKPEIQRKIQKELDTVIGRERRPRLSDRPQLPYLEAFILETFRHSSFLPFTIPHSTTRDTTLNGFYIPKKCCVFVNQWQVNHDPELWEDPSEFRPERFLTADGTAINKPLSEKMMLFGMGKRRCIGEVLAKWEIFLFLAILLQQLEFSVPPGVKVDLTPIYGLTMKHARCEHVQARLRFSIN
Put plainly: in vitro. More on the design: cytochrome P450 isoform inhibition liability assay.

The target of series [7] is CYP2C19 (Homo sapiens, UniProt P33261). In words: in vitro. Also on record: cytochrome P450 isoform inhibition liability assay.
Series [8] deals with CYP2C9 (Homo sapiens, UniProt P11712). Put plainly: in vitro. Also on record: cytochrome P450 isoform inhibition liability assay.
Series [9] has as its target CYP2D6 (Homo sapiens, UniProt P10635). Put plainly: in vitro. Also on record: cytochrome P450 isoform inhibition liability assay.
Series [10] deals with CYP3A4 (Homo sapiens, UniProt P08684). In words: in vitro. Also on record: cytochrome P450 isoform inhibition liability assay.
For series [11], the system named is 786-O. Put plainly: cells. The conditions noted are these: Homo sapiens, 786-0; mitochondrial toxicity. More on the design: mitochondrial toxicity in 786-O renal carcinoma cells.
A short description of series [12]: in vitro. Conditions: human, a549 cells; read-out: % cell growth A549 at 10uM. Also on record: cytotoxicity, per cent cell growth of A549 cells.
The nature of series [13]: in vitro. More on the design: cytotoxicity, per cent cell growth of WI-38 fibroblasts. The conditions noted are these: human, wi-38 cells; read-out: % cell growth W1-38 at 10uM.
The test system of series [14] is T. b. brucei Lister 427 bloodstream forms. Put plainly: T. brucei resazurin assay for MTX potentiation and folic acid supplementation. The series is classed as cell-based, Trypanosoma brucei brucei. As for the experimental part: T. b. brucei Lister 427 bloodstream forms were grown at 37 °C and 5% CO2 in a complete HMI-9 medium, supplemented with 10% FCS and 100 UI/mL of penicillin/streptomycin. The cultures were diluted until a cell density of 2 × 10^6/mL was reached. The efficacy of compounds against T. brucei bloodstream forms was evaluated using a modified resazurin-based assay previously described.[46] The compounds were prepared from a stock solution in 10 mM DMSO and diluted in HMI-9 (supplemented or not with 1 mM folic acid, Sigma-Aldrich) to 40 μM work solution (0.4% DMSO, with the DMSO limit in the assay being 0.4%). […] The 40 μM work solution was then used to perform serial dilutions (1:2) in a 96-well plate. Upon compound addition to the test plate, the mid-log bloodstream forms were added (100 μL) in complete HMI-9 medium (supplemented or not with 1 mM folic acid) at a final cell density of 1 × 10^4/mL in a final well volume of 200 μL with a maximum DMSO concentration of 0.2%. Following incubation for 72 h at 37 °C and 5% CO2, 20 μL of 0.5 mM resazurin solution was added, and the plates were incubated further for 4 h under the same conditions. Fluorescence was measured at 540 and 620 nm excitation and emission wavelengths, respectively, using a Synergy 2 multi-mode reader (BioTek). […] This approach requires the use of both compounds at their EC50 potency in the combination, which is impossible to be detected for compound 4m having no intrinsic antiparasitic activity as a single agent at the tested concentrations. Folic acid (1 mM) was chosen on the basis of the following experiments. The stock solution of 10 mM folic acid dissolved in NaOH solution was used to perform a dose–response curve with folic acid alone to evaluate the maximum amount we could use without compromising parasite growth due to pH modification of the media. […] The IC50 values reported are the averages of the results obtained in at least two independent experiments. Pentamidine was used as the reference drug and internal control in all assays.
(Alamar Blue is a resazurin reagent that responds to reducing activity.)

For series [15] the test system is unchanged. More on the design: method as in PMID 27175479, PMID 27703008, PMID 18557814. Conditions: no folate supplementation; read-out: reported EC50 T. brucei with no folate supplementation; cited from earlier work.

Where two headings read alike, the source gives them in different places.

Chain of CYP2D6 (P10635 whole entry, canonical isoform): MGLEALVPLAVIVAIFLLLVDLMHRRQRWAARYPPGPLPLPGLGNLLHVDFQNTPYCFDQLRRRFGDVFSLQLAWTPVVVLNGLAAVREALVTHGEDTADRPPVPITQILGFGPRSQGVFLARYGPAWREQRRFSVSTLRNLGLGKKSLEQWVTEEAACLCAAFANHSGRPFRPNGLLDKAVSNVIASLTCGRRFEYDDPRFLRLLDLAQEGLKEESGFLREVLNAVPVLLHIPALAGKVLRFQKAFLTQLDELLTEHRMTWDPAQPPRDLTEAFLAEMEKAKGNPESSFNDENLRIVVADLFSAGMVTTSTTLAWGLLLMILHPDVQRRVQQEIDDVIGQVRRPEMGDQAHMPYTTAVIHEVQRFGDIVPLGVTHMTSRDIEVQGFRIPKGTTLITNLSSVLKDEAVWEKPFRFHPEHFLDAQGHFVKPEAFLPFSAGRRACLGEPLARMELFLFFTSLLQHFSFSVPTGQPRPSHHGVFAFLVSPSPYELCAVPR
Chain of CYP2C19 (P33261 whole entry, canonical isoform): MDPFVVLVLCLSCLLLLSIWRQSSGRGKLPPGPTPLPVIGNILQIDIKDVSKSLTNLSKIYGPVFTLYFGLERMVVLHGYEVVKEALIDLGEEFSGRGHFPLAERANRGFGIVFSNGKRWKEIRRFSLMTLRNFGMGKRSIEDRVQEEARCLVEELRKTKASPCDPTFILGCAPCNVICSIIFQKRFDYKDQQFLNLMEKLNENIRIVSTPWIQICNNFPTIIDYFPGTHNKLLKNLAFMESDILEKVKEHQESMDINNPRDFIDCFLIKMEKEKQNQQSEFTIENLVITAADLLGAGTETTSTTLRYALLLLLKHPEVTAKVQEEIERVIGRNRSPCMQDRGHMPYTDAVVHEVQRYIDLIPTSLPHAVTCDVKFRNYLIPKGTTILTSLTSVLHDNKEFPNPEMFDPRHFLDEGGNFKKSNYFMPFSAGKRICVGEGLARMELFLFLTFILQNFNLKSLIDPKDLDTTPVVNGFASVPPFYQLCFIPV
Chain of CYP2C9 (P11712 whole entry, canonical isoform): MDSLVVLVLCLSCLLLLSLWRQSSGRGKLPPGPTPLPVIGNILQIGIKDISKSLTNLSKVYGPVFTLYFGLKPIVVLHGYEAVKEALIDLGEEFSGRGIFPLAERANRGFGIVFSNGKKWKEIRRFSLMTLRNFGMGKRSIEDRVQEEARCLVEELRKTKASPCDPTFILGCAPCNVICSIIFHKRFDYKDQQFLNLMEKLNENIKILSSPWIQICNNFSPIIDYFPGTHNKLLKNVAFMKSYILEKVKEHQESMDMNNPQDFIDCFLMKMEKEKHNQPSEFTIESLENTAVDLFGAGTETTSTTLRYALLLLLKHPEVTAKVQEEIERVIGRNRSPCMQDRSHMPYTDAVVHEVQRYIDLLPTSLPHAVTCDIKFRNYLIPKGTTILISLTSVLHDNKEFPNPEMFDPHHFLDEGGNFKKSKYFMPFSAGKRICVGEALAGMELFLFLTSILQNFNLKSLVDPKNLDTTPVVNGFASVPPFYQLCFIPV
Chain of CYP3A4 (P08684 whole entry, canonical isoform): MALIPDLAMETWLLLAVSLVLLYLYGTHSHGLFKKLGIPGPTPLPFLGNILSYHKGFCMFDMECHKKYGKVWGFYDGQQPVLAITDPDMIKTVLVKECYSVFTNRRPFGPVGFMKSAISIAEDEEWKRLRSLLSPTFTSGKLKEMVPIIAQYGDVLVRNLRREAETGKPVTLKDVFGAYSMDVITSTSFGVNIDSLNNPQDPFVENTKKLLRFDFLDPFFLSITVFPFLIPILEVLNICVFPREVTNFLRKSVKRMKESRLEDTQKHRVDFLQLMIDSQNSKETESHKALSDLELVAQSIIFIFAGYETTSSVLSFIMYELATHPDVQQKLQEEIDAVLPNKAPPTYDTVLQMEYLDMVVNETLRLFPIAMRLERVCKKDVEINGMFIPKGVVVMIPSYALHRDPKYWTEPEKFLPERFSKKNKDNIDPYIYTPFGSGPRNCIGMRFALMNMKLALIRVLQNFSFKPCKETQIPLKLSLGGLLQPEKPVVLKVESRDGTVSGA
T2 sequence (Q12809 whole entry): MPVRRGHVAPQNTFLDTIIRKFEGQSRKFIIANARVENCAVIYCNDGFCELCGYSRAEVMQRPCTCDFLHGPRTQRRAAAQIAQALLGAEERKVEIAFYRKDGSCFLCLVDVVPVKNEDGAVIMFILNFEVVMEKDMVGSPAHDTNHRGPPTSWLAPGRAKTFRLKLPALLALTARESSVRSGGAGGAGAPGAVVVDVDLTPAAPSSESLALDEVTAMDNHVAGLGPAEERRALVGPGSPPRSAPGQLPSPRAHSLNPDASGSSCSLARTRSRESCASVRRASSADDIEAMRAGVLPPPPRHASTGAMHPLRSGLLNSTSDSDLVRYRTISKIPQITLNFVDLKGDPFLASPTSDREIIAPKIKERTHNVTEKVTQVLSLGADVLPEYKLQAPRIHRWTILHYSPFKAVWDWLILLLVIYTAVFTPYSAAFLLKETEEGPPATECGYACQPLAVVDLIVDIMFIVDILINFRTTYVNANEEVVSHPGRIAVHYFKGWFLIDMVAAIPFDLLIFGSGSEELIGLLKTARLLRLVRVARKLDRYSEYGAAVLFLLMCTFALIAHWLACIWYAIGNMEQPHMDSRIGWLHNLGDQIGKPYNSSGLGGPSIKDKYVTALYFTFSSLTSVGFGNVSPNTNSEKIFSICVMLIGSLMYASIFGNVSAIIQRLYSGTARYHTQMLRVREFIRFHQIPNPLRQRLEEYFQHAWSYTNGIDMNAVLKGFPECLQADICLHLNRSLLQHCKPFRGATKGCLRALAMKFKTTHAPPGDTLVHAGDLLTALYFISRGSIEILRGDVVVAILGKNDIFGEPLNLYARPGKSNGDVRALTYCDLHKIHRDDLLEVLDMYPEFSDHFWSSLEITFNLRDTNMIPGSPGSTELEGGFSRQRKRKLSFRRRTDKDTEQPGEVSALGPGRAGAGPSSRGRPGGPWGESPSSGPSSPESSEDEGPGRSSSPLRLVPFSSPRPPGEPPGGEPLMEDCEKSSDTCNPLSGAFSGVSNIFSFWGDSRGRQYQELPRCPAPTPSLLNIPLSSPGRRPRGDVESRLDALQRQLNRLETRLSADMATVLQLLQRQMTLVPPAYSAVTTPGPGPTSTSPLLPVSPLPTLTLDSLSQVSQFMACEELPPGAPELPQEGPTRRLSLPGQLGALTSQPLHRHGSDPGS

The term inhibition denotes the change of the read-out against control, counted positive when it falls. The term IC50 denotes the concentration that gives 50% inhibition. Broadly, the Ki is the dissociation constant of the complex between target and ligand, obtained from inhibition or displacement. Higher therefore signals a looser hold on the target. On to `Nc1nnc(CCC(=O)c2cccs2)s1` [3k], for which the inhibition at 50 µM came to 26 ± 0.7% in series [1] (50 μM compound, read-out: % Inhibition TbPTR1 at 50 μM); 60.7% in series [2]; 18% in series [3] (10 min, pH 6, 50 µM compound). Moreover, the IC50 in series [1] (dose-response 0.001-100 μM) is over 70 µM; in series [4], over 50 µM. The same molecule showed a Ki in series [3] (competitive inhibition mechanism assumed) of 48 µM. Further, the inhibition at 10 µM was 0.1 ± 6.4% in [5]; 4.9 ± 1.4% in series [6]; -3.4 ± 15.5% in series [7]; -10.5 ± 2.1% in series [8]; -20.6 ± 3.1% in series [9]; 10.3 ± 7.8% in series [10]. Moreover, in series [11], the inhibition at 10 µM was -5.2 ± 3.9%. The viability at 10 µM in [12] stood at 131 ± 2.8%; in series [13] it was 92 ± 9.7%.
In general, EC50 refers to the concentration at which the effect is half-maximal. On to `CN(Cc1cnc2nc(N)nc(N)c2n1)c1ccc(C(=O)N[C@@H](CCC(=O)O)C(=O)O)cc1` [MTX, methotrexate, reference compound], for which, in series [14] (1 mM folic acid, MTX alone or equimolar 4m + MTX), the “effect of 1 mM folic acid on T. b. brucei growth inhibition” value is on record as “reduce the antiparasitic activity”. For the same molecule, the EC50 is 35 ± 3 µM in series [14] (Trypanosoma brucei, media supplemented with 9 μM folic acid, read-out: EC50 T. brucei, single agent) and 0.012 µM in [15].
